Earlier results as cited in patent US11173217B2, “Methods and compositions for near infrared fluorescent nanodots with aggregation-induced emission characteristics” (priority 2016, dated 2021).

Conditions: in DMSO; cited from earlier work

Question: With `CC1(C)C(/C=C/C=C/C=C/C=C2\N(CCCCS(=O)(=O)[O-])c3ccc4ccccc4c3C2(C)C)=[N+](CCCCS(=O)(=O)[O-])c2ccc3ccccc3c21.[Na+]` [IR-125] as the compound, how does the “quantum yield of reference” value read?
Answer: 13%
